Measurements as given in patent US4786755A, “Diphenic acid monoamides” (Warner-Lambert Company, priority 1986, dated 1988).

Target: T1, human leukocyte 5-lipoxygenase (Homo sapiens, UniProt P09917)
T1 construct: endogenous in cells; host or cells: leukocytes from fresh blood of normal adult men
T1 sequence (P09917 1-674): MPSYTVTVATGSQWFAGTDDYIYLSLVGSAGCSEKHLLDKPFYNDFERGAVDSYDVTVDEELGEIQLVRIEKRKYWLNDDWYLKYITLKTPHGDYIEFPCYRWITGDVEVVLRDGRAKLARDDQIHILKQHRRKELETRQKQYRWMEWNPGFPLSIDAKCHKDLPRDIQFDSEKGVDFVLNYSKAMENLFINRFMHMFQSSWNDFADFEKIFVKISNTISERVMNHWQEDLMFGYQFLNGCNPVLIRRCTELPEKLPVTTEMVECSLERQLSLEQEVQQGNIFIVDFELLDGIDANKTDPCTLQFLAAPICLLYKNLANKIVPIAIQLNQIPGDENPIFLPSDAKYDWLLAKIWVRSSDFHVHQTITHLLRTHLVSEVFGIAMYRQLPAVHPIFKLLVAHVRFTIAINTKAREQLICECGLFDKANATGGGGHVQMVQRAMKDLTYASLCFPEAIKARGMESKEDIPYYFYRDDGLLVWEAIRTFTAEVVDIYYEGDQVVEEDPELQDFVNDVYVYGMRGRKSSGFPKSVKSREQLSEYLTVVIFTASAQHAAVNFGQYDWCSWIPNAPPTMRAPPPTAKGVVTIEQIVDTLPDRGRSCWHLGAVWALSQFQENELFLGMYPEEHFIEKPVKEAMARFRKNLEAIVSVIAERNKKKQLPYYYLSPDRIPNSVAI
Experiment: 5-Lipoxygenase Inhibitor in Human Leukocytes (5LOA1)
Assay type: cell-based
Details: 100 μM exogenous arachidonic acid; read-out: IC50 5LOA (100)*
Excerpt: To Evaluate the Effect of Each Compounds as a 5-Lipoxygenase Inhibitor in Comparison to Standard Reference Agents in Human Leukocytes (5LOA1)
The purpose of this assay is to evaluate the activity of each compound as an inhibitor of human leukocyte 5-lipoxygenase.
Arachidonic acid and calcium ionophore A23187 are obtained from Sigma (St. Louis, MO). Silica gel plates, GF are obtained from Analtech (Newark, DE). Arachidonic acid, (1-^14 C) and 5-HETE (^3 H), 5 (S)-hydroxy-6-trans,8,11,14-cis eicosatetraenoic acid, are obtained from New England Nuclear (Boston, MA). Six percent Dextran-70 in 0.9% NaCl is obtained from Cutter Labs (Berkeley, CA).
Preparation of Leukocytes
Fresh blood from normal adult men who had not received any drugs for at least the previous five days is obtained by the Community Research Clinic (WL/PD) using venipuncture and collected into heparinized vacuotainer tubes. To every 100 ml of pooled blood is added 25 ml of dextran solution (6% dextran -70 in 0.9% sodium chloride containing 3% dextrose) and this is mixed gently in a plastic cylinder. The mixture is left to stand at room temperature for at least 90 minutes. The upper layer which is rich in leukocytes and platelets is then carefully decanted into 50 ml plastic tubes and centrifuged at about 100×g for eight minutes in an IEC centrifuge and rotor number 269 (about 600 rpm). The supernatant fluid is discarded and the pellet is resuspended in 10 ml of 0.87% ammonium chloride for exactly two minutes. This procedure is to lyse completely contaminating red blood cells. Leukocytes are then separated by centrifugation for ten minutes. The pellet is washed three times by suspension in 20 ml PBS (sodium chloride, 7.1 g; Na2 HPO4, 1.15 g; KH2 PO4, 0.2 g, and KCl, 0.2 g/L) and centrifuged as before. The final pellet is suspended in PBS containing 0.87 mM CaCl2. Viability of the cells is then checked using trypan blue exclusion method and is found to be over 90%.
5-Lipoxygenase Enzyme Assay
Cells in suspension (0.98 ml) are incubated with or without test compounds for five minutes at 37° C. in a shaking water bath. At this time a 17 μl mixture is prepared per 1 ml of cell suspension: 100 mM arachidonic acid, 1 μl, 0.05 μCi ^14 C-arachidonic acid in 5 μl; 1 mM calcium ionophore A23187, 10 μl (1). This mixture is added and the incubation continued for five minutes. The reaction is stopped by adding four volumes of absolute ethanol and the mixture is kept in ice for 30 minutes. The floculated precipitate is separated by centrifugation at about 37,000×g for 20 minutes (Beckman Instruments rotor number 40). The alcohol extract is taken to dryness under a stream of nitrogen and the residue is dissolved in 100-200 μl absolute ethanol. At the time any turbidity is removed by centrifugation. An aliquot (25-50 μl) is applied onto 20×20 cm silica gel TLC plate and developed using the following solvent system: diethyl ether, petroleum ether (20°-40° C.), acetic acid (50:50:1 v/v). Zones of 1 cm apart are scraped from the TLC plate and transferred to mini-vials. Methanol (0.5 ml) is added to dissolve the radioactivity adsorbed to the silica gel and scintillation fluid (H.P., Beckman), 5 ml is then added and vials are counted in a liquid scintillation counter. A sample of ^3 H-5-HETE is applied and used for the identification of the formed 5-HETE.
Total radioactivity in the test as well as the control samples are normalized and the amount of 5-HETE present is calculated accordingly.
IC50 values are defined as the concentrations of test agents which caused a 50% inhibition of the formation of 5-HETE as compared to control and are determined by inspection of the concentration-response curves.

Compound | IC50
CN(C(=O)c1ccccc1-c1ccccc1C(=O)O)c1ccc(CCc2ccc(Cl)c(Cl)c2)cc1 [Example 5, [1,1'-Biphenyl]-2-carboxylic acid, 2'-[[[4-[2-(3,4-dichlorophenyl)ethyl]phenyl]methylamino]carbonyl]-] | 40 µM
CN(C(=O)c1ccccc1-c1ccccc1C(=O)O)c1ccc(CCc2ccc(Cl)cc2)cc1 [Example 8] | > 20 µM
O=C(O)c1ccccc1-c1ccccc1C(=O)Nc1ccc(CCc2ccc(Cl)cc2)cc1 [Example 11, [1,1'-Biphenyl]-2-carboxylic acid, 2'-[[4-[2-[(4-chlorophenyl)ethyl]phenyl]amino]carbonyl]-] | 12 µM
COc1ccc(CCc2ccc(NC(=O)c3ccccc3-c3ccccc3C(=O)O)cc2)cc1OC [Example 7, [1,1'-Biphenyl]-2-carboxylic acid, 2'-[[[4-[2-(3,4-dimethoxyphenyl)ethyl]phenyl]amino]carbonyl]-] | > 20 µM

Results, then the compound that gave them:

IC50 | Compound
4.6 µM | O=C(O)c1ccccc1-c1ccccc1C(=O)Nc1ccc(CCc2ccc(Cl)c(Cl)c2)cc1 [Example 3, [1,1'-Biphenyl]-2-carboxylic acid, 2'-[[[4-[2-(3,4-dichlorophenyl)ethyl]phenyl]amino]carbonyl]-]
9.6 µM | O=C(O)c1ccccc1-c1ccccc1C(=O)Nc1ccc(CCCc2ccc(Cl)c(Cl)c2)cc1 [Example 1, [1,1'-Biphenyl]-2-carboxylic acid, 2'-[[[4-[3-(3,4-dichlorophenyl)propyl]phenyl]amino]carbonyl]-]
9.3 µM | O=C(O)c1ccccc1-c1ccccc1C(=O)Nc1cccc(CCc2ccc(Cl)c(Cl)c2)c1 [Example 4, [1,1'-Biphenyl]-2-carboxylic acid, 2'-[[[3-[2-(3,4-dichlorophenyl)ethyl]phenyl]amino]carbonyl]-]
